We go through 13 compounds from ChEMBL document CHEMBL3991601, “The target landscape of clinical kinase drugs” (Science, 2017).

Assay [1] deals with T1, Adenine phosphoribosyltransferase (Homo sapiens, UniProt P07741).
T1 sequence (P07741 whole entry): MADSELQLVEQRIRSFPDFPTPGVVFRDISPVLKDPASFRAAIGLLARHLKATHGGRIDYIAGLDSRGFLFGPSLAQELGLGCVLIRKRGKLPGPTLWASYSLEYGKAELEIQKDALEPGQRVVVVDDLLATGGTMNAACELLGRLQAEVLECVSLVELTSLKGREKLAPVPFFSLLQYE

The target in assay [2] is Cyclin-dependent kinase 4 (Homo sapiens, UniProt P11802).
Sequence of Cyclin-dependent kinase 4 (P11802 whole entry): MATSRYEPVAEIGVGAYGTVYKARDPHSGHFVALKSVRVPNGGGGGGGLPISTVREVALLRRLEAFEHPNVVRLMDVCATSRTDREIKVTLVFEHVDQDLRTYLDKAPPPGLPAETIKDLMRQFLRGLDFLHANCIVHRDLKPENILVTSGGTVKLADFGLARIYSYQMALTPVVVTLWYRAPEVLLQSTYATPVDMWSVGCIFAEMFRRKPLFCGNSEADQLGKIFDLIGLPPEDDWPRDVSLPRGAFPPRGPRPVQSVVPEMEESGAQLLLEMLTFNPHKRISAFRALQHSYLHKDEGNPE
In assay [3] the target is T2, Serine/threonine-protein kinase ICK (Homo sapiens, UniProt Q9UPZ9).
T2 sequence (Q9UPZ9 whole entry): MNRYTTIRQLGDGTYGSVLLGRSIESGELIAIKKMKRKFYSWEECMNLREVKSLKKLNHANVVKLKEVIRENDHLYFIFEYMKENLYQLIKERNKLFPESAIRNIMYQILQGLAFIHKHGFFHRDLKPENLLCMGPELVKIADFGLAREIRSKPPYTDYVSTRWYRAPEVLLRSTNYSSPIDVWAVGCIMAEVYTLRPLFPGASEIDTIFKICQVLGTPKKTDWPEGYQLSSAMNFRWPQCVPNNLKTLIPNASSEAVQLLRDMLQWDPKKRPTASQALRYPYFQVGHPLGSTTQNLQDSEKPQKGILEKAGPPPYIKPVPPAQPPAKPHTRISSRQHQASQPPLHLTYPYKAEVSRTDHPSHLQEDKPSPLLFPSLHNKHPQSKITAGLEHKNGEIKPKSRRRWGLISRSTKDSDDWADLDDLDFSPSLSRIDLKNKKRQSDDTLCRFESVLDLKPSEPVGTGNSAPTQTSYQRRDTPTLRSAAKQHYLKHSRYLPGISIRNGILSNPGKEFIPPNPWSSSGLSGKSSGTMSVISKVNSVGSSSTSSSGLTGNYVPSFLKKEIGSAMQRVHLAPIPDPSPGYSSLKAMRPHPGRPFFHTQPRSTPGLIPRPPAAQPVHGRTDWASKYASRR

In assay [4] the target is T3, STE20-related kinase adapter protein alpha (Homo sapiens, UniProt Q7RTN6).
T3 sequence (Q7RTN6 whole entry): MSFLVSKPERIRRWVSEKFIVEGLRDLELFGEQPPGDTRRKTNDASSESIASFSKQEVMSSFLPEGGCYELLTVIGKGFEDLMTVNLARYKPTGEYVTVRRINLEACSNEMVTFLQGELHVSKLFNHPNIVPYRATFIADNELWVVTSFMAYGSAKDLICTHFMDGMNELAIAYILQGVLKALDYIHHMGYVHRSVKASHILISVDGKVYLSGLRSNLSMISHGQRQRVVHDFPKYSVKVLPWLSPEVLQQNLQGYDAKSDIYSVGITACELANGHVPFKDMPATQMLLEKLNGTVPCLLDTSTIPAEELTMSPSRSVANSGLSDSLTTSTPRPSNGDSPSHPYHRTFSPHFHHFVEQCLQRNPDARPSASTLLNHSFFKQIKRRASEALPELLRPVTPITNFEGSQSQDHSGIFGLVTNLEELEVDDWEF

The target of assay [5] is T4, Acyl-CoA dehydrogenase family member 10 (Homo sapiens, UniProt Q6JQN1).
T4 sequence (Q6JQN1 whole entry): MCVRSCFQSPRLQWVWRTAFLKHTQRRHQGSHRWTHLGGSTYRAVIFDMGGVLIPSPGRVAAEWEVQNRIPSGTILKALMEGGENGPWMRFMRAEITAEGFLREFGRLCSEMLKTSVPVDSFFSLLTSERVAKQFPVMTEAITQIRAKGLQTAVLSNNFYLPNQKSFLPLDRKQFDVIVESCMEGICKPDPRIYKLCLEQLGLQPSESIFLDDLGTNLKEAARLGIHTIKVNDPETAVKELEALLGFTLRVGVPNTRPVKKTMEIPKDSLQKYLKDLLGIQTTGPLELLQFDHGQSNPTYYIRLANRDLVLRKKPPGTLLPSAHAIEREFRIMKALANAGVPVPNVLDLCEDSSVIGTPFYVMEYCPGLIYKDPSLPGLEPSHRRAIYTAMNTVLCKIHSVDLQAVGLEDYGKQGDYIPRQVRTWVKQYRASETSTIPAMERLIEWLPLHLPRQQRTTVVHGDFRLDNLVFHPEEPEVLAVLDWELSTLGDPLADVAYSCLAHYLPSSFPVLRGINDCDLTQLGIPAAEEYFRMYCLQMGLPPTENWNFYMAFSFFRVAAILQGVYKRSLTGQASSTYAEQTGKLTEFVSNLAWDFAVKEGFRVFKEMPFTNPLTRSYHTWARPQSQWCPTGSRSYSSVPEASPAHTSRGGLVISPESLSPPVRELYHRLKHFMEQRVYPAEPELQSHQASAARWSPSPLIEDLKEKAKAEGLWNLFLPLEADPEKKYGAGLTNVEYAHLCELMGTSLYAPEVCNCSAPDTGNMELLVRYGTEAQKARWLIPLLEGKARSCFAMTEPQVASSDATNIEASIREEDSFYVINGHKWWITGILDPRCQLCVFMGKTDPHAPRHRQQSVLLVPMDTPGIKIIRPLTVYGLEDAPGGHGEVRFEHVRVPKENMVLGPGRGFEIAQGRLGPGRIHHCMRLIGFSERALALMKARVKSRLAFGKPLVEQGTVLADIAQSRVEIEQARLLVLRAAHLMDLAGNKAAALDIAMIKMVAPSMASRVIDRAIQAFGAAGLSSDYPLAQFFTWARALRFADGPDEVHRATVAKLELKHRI

Assay [6] addresses Tyrosine-protein kinase BTK (Homo sapiens, UniProt Q06187).
Assay [7] has as its target T5, Succinate--CoA ligase [ADP-forming] subunit beta, mitochondrial (Homo sapiens, UniProt Q9P2R7).
T5 sequence (Q9P2R7 whole entry): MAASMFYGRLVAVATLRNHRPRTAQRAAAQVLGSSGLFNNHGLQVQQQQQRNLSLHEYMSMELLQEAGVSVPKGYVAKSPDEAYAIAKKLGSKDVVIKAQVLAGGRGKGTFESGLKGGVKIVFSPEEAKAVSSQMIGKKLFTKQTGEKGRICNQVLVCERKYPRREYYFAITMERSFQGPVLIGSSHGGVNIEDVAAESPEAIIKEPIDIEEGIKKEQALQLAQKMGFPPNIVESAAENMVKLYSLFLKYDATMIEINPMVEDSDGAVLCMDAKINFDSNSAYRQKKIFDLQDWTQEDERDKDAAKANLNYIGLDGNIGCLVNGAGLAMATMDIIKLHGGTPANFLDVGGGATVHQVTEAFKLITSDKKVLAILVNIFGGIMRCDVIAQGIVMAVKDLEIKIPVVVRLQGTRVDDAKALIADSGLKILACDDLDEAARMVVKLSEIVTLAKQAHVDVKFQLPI

SMILES strings stand for the structures. Active and inactive are the calls of the source.

The Kd is the concentration at which binding is half-saturated.
Also: in the data inactive means no Kd found up to 30 µM.

Sequence of Tyrosine-protein kinase BTK (Q06187 whole entry): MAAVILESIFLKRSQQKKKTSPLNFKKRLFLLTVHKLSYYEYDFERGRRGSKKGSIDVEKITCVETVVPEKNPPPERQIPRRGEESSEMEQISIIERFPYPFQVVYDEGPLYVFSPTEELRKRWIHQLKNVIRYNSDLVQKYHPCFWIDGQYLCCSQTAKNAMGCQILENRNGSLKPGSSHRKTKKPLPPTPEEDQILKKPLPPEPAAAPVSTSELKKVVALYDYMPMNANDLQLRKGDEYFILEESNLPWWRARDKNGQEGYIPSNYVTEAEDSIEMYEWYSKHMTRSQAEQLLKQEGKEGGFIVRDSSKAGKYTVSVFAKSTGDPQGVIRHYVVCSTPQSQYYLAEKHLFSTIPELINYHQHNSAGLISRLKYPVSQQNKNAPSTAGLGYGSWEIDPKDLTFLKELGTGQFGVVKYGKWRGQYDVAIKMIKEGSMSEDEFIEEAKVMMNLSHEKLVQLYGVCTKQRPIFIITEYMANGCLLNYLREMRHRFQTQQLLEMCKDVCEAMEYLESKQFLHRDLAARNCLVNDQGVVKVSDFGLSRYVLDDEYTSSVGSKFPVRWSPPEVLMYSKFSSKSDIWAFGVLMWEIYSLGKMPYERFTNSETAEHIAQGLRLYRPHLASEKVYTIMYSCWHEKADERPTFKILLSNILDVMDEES

With `COc1cc2ncnc3c2cc1OCCCCCN(C)Cc1ccc(Br)cc1N3` [JNJ-26483327], the Kd in assay [1], in assay [2], in assay [3], in assay [4], in assay [5] and in assay [6] was > 30 µM (inactive) each time. In addition, in assay [7], the Kd is > 30 µM (inactive).
Consider `COc1ccc2c(OCc3nnc4ccc(-c5ccccc5)nn34)ccnc2c1` [AMG-208], for which the Kd in assay [1], in assay [2], in assay [3], in assay [4], in assay [5] and in assay [6] was > 30 µM (inactive) in each case. Also, the Kd in assay [7] was > 30 µM (inactive).
With `NC(=O)c1ccc(N(C(N)=O)c2c(F)cccc2F)nc1-c1ccc(F)cc1F` [VX-702], the Kd in assay [1], in assay [2], in assay [3], in assay [4], in assay [5] and in assay [6] was > 30 µM (inactive) each time. Besides, the Kd in assay [7] was > 30 µM (inactive).
On to `CC[C@@](C)(Nc1ccnc(-c2c[nH]c3ncccc23)n1)C(=O)NCC(F)(F)F` [DECERNOTINIB], for which the Kd in assay [1], in assay [2], in assay [3], in assay [4], in assay [5] and in assay [6] was > 30 µM (inactive) in each case. Moreover, the Kd in assay [7] was > 30 µM (inactive).
Consider `CC(C)CC(=O)Nc1[nH]nc2c1CN(C(=O)C1CCN(C)CC1)C2(C)C` [PHA-793887], for which the Kd in assay [1], in assay [2], in assay [3], in assay [4], in assay [5] and in assay [6] was > 30 µM (inactive) each time. Besides, in assay [7], the Kd was > 30 µM (inactive).
As to `COc1cccc(Nc2ncnn3ccc(CN4CC[C@@H](N)[C@H](O)C4)c23)c1` [BMS-690514], the Kd in assay [1], in assay [2], in assay [3], in assay [4], in assay [5] and in assay [6] was > 30 µM (inactive) throughout. Besides, in assay [7], the Kd is > 30 µM (inactive).
For the compound `COc1cc(F)c(F)c(Nc2ccc(I)cc2F)c1NS(=O)(=O)C1(C[C@H](O)CO)CC1` [REFAMETINIB], the Kd in assay [1], in assay [2], in assay [3], in assay [4], in assay [5] and in assay [6] was > 30 µM (inactive) each time. Besides, the Kd in assay [7] was > 30 µM (inactive).
Take `Cc1ccc(C(=O)Nc2ccc(Oc3cc4cnn(C)c4cc3-c3cn[nH]c3)c(F)c2)c(=O)n1-c1ccc(F)cc1` [MERESTINIB]: the Kd in assay [1], in assay [2], in assay [3], in assay [4], in assay [5] and in assay [6] was > 30 µM (inactive) each time. Further, the Kd in assay [7] is > 30 µM (inactive).
As for `C=CC(=O)Nc1cccc(Nc2nc(Nc3ccc(N4CCN(C(C)=O)CC4)cc3OC)ncc2C(F)(F)F)c1` [ROCILETINIB], the Kd in assay [1] is > 30 µM (inactive); in assay [2], > 30 µM (inactive); in assay [3], > 30 µM (inactive); in assay [4] it was > 30 µM (inactive); in assay [5], > 30 µM (inactive); in assay [6] it was 0.547 µM (active). For the same compound, the Kd in assay [7] was > 30 µM (inactive).
As to `C=CC(=O)Nc1cc(Nc2nccc(-c3cn(C)c4ccccc34)n2)c(OC)cc1N(C)CCN(C)C` [OSIMERTINIB], the Kd in assay [1] was > 30 µM (inactive); in assay [2] it was > 30 µM (inactive); in assay [3], > 30 µM (inactive); in assay [4], > 30 µM (inactive); in assay [5] it was > 30 µM (inactive); in assay [6], 0.525 µM (active). The Kd in assay [7] was > 30 µM (inactive).
For `COc1cc(Nc2ncc(F)c(Nc3ccc4c(n3)N(COP(=O)(O)O)C(=O)C(C)(C)O4)n2)cc(OC)c1OC` [FOSTAMATINIB], the Kd in assay [1], in assay [2], in assay [3], in assay [4], in assay [5] and in assay [6] was > 30 µM (inactive) each time. Further, the Kd in assay [7] is > 30 µM (inactive).
For `O=S(=O)(c1cccc2c(O)nccc12)N1CCCNCC1` [HYDROXYFASUDIL], the Kd is > 30 µM (inactive) in assay [1]; > 30 µM (inactive) in assay [2]; > 30 µM (inactive) in assay [3]; > 30 µM (inactive) in assay [4]; 3.96 µM (active) in assay [5]; > 30 µM (inactive) in assay [6]. Moreover, in assay [7], the Kd is > 30 µM (inactive).
With `O=C(O)c1ccc2c(c1)nc(Nc1cccc(Cl)c1)c1ccncc12` [SILMITASERTIB], the Kd was > 30 µM (inactive) in assay [1]; > 30 µM (inactive) in assay [2]; 0.884 µM (active) in assay [3]; > 30 µM (inactive) in assay [4]; > 30 µM (inactive) in assay [5]; > 30 µM (inactive) in assay [6]. Moreover, the Kd in assay [7] is > 30 µM (inactive).
